Patent US11254700B2, “GSK-3β inhibitors and use thereof in methods of treatment” (UNIVERSITY OF HAWAII, priority 2017, dated 2022)
“Also recorded” adds a separate entry of the source.

What was measured:
GSK-3β = GSK-3β (Homo sapiens, UniProt P49841); assay: Kinase luminescent assay (ADP-Glo), GSK-3β inhibition; format: biochemical; conditions: 25 μM ATP, 1 hour, room temperature; mean of quadruplicate of two experiments; read-out: IC50 against GSK-3β
Description: Kinase Luminescent Assay.
Kinase inhibition was assessed with the ADP-Glo Kinase Assay. […] The reaction mixture was incubated for 1 hour at room temperature followed by the addition of the ADP-Glo′ reagents according to the manufacturer's protocol. The kinase inhibitor staurosporine was used at 1 μM as a reference control. Each data point was collected in quadruplicate of two independent experiments.

[1] = PAMPA passive membrane permeability; conditions: for R (percent recovery) / Pe: 20 μM, pH 7.4, 5 hours; for Pe: room temperature, mean ±SD; for permeability compared to isoorientin 1: 5-hour incubation; for Permeability classification: PAMPA
Description: Samples were run in quadruplicate.
Oral administration is noninvasive and is preferred for chronical diseases such as Alzheimer's disease and other CNS disorders. […] In the PAMPA model, the amount of target compounds diffused from a donor compartment to an acceptor compartment through a tri-layer phospholipid pre-coated membrane are measured to assess oral-absorption potential of drug candidates. In the present study, 1, 4, 9, 17, 21 and 30 were evaluated with the PAMPA assay.

[2] = system: GSK-3β-mediated tau phosphorylation (pS396) in SH-SY5Y lysate; assay: Whole-cell lysate GSK-3β assay with human Tau pS396 ELISA; format: biochemical; conditions: 2, 10 and 50 μM, 2 hours, 37° C., lysate with 0.25% GSK-3β
Description: Whole-Cell Lysate GSK-3β Assay.
The assay procedure was followed as described (Liang, et al. (2016) ACS Chem. Neurosci. 7:912-923). SH-SY5Y cells were washed with phosphate-buffered saline (PBS) and lysed with cell extraction buffer containing 10 mM Tris, pH 7.4, 100 mM NaCl, 1 mM EDTA, 1 mM EGTA, 1 mM NaF, 20 mM Na4P2O7, 2 mM Na3VO4, 1% Triton X-100, 10% glycerol, 0.1% sodium dodecyl sulfate (SDS), 0.5% sodium deoxycholate, 1 mM phenylmethanesulfonyl fluoride (PMSF) and a protease inhibitor cocktail. Lysate was diluted with kinase buffer (40 mM Tris, pH 7.5, 20 mM MgCl2, 50 μM DTT, 400 μM ATP) to afford a concentration of 5 μg/μL of total protein, and split into aliquots. Recombinant human GSK-3β was fortified into lysate aliquots to a final concentration of 0.25% (wt/wt) of total protein. A lysate aliquot fortified with heat-inactivated GSK-3β was used as a negative control. The fortified lysate aliquots were incubated with test sample or 5% DMSO vehicle at 37° C. for 2 hours followed by ELISA analysis.
The quantitative determination of phosphorylated human tau at GSK-3β specific pS396 site was conducted by taking 50 μL diluted cell lysate and using a specific antibody against human tau [pS396] in a sandwich ELISA according to the manufacturer's protocol. Tau phosphorylation was quantified by measuring the absorbance at 450 nm in a microtiter plate reader. The analysis was collected in quadruplicate of two independent experiments.

Sequence of GSK-3β (P49841 whole entry): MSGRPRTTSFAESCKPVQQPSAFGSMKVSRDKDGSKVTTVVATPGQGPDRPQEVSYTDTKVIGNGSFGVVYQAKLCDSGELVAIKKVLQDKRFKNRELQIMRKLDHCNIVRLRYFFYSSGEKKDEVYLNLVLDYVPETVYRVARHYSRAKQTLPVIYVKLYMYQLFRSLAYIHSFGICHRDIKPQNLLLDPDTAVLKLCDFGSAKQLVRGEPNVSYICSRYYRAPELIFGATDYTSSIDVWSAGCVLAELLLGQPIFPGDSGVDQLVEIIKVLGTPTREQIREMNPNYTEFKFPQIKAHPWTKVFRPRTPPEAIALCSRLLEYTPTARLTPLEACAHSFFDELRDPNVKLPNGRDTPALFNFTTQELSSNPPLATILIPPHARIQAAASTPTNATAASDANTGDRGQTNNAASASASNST

Row | SMILES | IC50 (GSK-3β) | R (percent recovery) [1] | Pe [1] | permeability compared to isoorientin 1 [1] | Permeability classification [1] | GSK-3β-mediated tau hyperphosphorylation at pS396 [2]
1 | COc1ccc(-c2cc(=O)c3c(OC)c([C@@H]4O[C@H](C(=O)NC(C)C)[C@@H](O)[C@H](O)[C@H]4O)c(OC)cc3o2)cc1OC [Compound 9, (2S,3S,4R,5R,6S)-6-(2-(3,4-Dimethoxyphenyl)-5,7-dimethoxy-4-oxo-4H-chromen-6-yl)-3,4,5-trihydroxy-N-isopropyltetrahydro-2H-pyran-2-carboxamide] | 5.4 ± 0.1 µM | 46% | 1.55 ± 0.06 ×10^−6 cm/s | significant increase in permeability | high (high (Pe > 1.5 × 10^−6 cm/s)) | effectively attenuated tau hyperphosphorylation in a dose-dependent manner; also recorded: attenuate GSK-3β-mediated tau phosphorylation
2 | COc1ccc(-c2cc(=O)c3c(OC)c([C@@H]4O[C@H](C(=O)NC5CCCCC5)[C@@H](O)[C@H](O)[C@H]4O)c(OC)cc3o2)cc1OC [Compound 17, (2S,3S,4R,5R,6S)—N-Cyclohexyl-6-(2-(3,4-dimethoxyphenyl)-5,7-dimethoxy-4-oxo-4H-chromen-6-yl)-3,4,5-trihydroxytetrahydro-2H-pyran-2-carboxamide] | 9 ± 1.3 µM | 20% | 1.77 ± 0.07 ×10^−6 cm/s | significant increase in permeability | high (high (Pe > 1.5 × 10^−6 cm/s)) | effectively attenuated tau hyperphosphorylation in a dose-dependent manner; also recorded: attenuate GSK-3β-mediated tau phosphorylation
3 | COc1ccc(-c2cc(=O)c3c(OC)c([C@@H]4O[C@H](C(=O)NCc5ccccc5)[C@@H](O)[C@H](O)[C@H]4O)c(OC)cc3o2)cc1OC [Compound 21, (2S,3S,4R,5R,6S)-6-(2-(3,4-Dimethoxyphenyl)-5,7-dimethoxy-4-oxo-4H-chromen-6-yl)-3,4,5-trihydroxy-N-benzyltetrahydro-2H-pyran-2-carboxamide] | 15.8 ± 1.2 µM | 30% | 1.35 ± 0.08 ×10^−6 cm/s | significant increase in permeability | medium (medium (1.0 × 10^−6 cm/s ≤ Pe ≤ 1.5 × 10^−6 cm/s)) | effectively attenuated tau hyperphosphorylation in a dose-dependent manner; also recorded: attenuate GSK-3β-mediated tau phosphorylation
